Where two headings read alike, the source gives them in different places.
Tests used:
BRD4 BD1 = biological target: T1, BRD4 BD1 (Homo sapiens, UniProt O60885); test: AlphaScreen binding assay, BRD4 Bromodomain 1
T1 construct: made in house
Outline: (§1)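 An AlphaScreen competition format was used with His-BRD4 BD1 or BD2 and biotin-H4 K5/8/12/16-acetyl peptide, each at matched final levels of 50 nM (BD1) or 100 nM (BD2). Incubation in HEPES/NaCl buffer with 0.1% BSA and 0.01% Triton X-100 ran ≥1 h before IC50 determination.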

BRD4 BD2 = biological target: T2, BRD4 BD2 (Homo sapiens, UniProt O60885); test: AlphaScreen binding assay, BRD4 Bromodomain 2
T2 construct: made in house
Outline: as §1

MV4-11 cells = test: Oncology cell growth assay (3-day proliferation, CellTiter-Glo); format: cell-based; conditions: Homo sapiens, AML cell line MV4-11, 72 hours, compounds grouped by IC50 range, read-out: MV4-11 IC50 (inhibition of proliferation, gIC50)
Outline: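 72 h, 37° C, 5% CO2; MV4-11, 3000 cells/well, RPMI 1640 + 10% FBS. Compound final 10, 3.3, 1.1, 0.37, 0.12, 0.041, 0.013, 0.0045 μM. Readout CellTiter-Glo luminescence; gIC50 by 4-parameter logistic fit, normalised to DMSO and no-cell background.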

SMILES | IC50 (BRD4 BD1) [µM] | IC50 (BRD4 BD2) [µM] | IC50 (MV4-11 cells; MV4-11, 72 h) [µM] | IC50 (MV4-11 cells) [µM]
CC(=O)N1c2ccc(-c3ccc(S(=O)(=O)CC4CC4)cc3)cc2N(C(=O)OC2CCCCC2)C[C@@H]1C [Example I-1237] | 0.1 to 1 | 0.05 to 0.5 | 0.1 to 0.5 | 
CNS(=O)(=O)c1ccc(-c2ccc3c(c2)N(C(=O)c2ccco2)C[C@H](C)N3C(C)=O)cc1 [Example I-875] | 0.1 to 1 | < 0.05 | 0.1 to 0.5 | 
CC(=O)N1c2ccc(-c3ccc(S(N)(=O)=O)cc3)cc2N(C(=O)C2CCC2)C[C@@H]1C [Example I-1067] | > 10 | 0.05 to 0.5 | > 0.5 | 
COC(=O)N1CCN(C(=O)c2ccc(-c3ccc4c(c3)N(C(=O)OC(C)C)C[C@H](C)N4C(C)=O)cc2)CC1 [Example I-546] | 0.1 to 1 | 0.05 to 0.5 | 0.1 to 0.5 | 
CC(=O)N1c2ccc(-c3cccc(-c4ccccc4)c3)cc2N(C(=O)c2ccco2)C[C@@H]1C [Example I-793] | 1 to 10 | 0.05 to 0.5 | > 0.5 | 
CC(=O)N1c2ccc(-c3ccc(OCCS(C)(=O)=O)cc3)cc2N(C(=O)OC(C)C)C[C@@H]1C [Example I-1103] | 0.1 to 1 | 0.05 to 0.5 | > 0.5 | 
CC(=O)N1c2ccc(-c3cnn(C4CC4)c3)cc2N(C(=O)Oc2cccc(Cl)c2)C[C@@H]1C [Example I-518] | 0.1 to 1 | 0.05 to 0.5 | 0.1 to 0.5 | 
CC(=O)N1c2ccc(-c3ccc(S(=O)(=O)C(C)C)cc3)cc2N(C(=O)c2ccco2)C[C@@H]1C [Example I-288] | 1 to 10 | < 0.05 | 0.1 to 0.5 | 
CC(=O)N1c2ccc(-c3cnn(C4CS(=O)(=O)C4)c3)cc2N(C(=O)C2CC2)C[C@@H]1C [Example I-1305] | 1 to 10 | < 0.05 | > 0.5 | 
CC(=O)N1c2ccc(-c3ccc(S(=O)(=O)NCCO)cc3)cc2N(C(=O)OC2CCOCC2)C[C@@H]1C [Example I-1218] | 0.1 to 1 | 0.05 to 0.5 | 0.1 to 0.5 | 
CC(=O)N1c2ccc(-c3cnn(CC(N)=O)c3)cc2N(C(=O)OC(C)C)C[C@@H]1C [Example I-304] | 0.1 to 1 | 0.05 to 0.5 | 0.1 to 0.5 | 
CC(=O)N1c2ccc(-c3ccc4c(c3)CCN4S(C)(=O)=O)cc2N(C(=O)Oc2ccccn2)C[C@@H]1C [Example I-1328] | 0.1 to 1 | 0.05 to 0.5 | 0.1 to 0.5 | 
CC(=O)N1c2ccc(-c3cnn(C4CNC4)c3)cc2N(C(=O)Oc2cccnc2)C[C@@H]1C [Example I-1294] | 0.1 to 1 | 0.05 to 0.5 |  | > 0.5
COC(=O)N1c2ccc(-c3ccc(C(=O)N4CCN(S(C)(=O)=O)CC4)cc3)cc2N(C(=O)OC(C)C)C[C@@H]1C [Example I-573] | 0.1 to 1 | 0.05 to 0.5 | 0.1 to 0.5 | 
CC(=O)N1c2ccc(-c3ccc(C(=O)NCc4ncco4)cc3)cc2N(C(=O)OC(C)C)C[C@@H]1C [Example I-584] | 0.1 to 1 | 0.05 to 0.5 | 0.1 to 0.5 | 
CC(=O)N1c2ccc(-c3cccc(S(=O)(=O)C4CC4)c3)cc2N(C(=O)C2CCC2)C[C@@H]1C [Example I-1087] | 1 to 10 | 0.05 to 0.5 | > 0.5 | 
COC(=O)N1c2ccc(-c3ccc(C(=O)N4CC[C@H](NC(C)=O)C4)cc3)cc2N(C(=O)OC(C)C)C[C@@H]1C [Example I-571] | 0.1 to 1 | 0.05 to 0.5 | 0.1 to 0.5 | 
CC(=O)N1c2ccc(-c3ccc(S(C)(=O)=O)c(F)c3)cc2N(C(=O)OC2CCCCC2)C[C@@H]1C [Example I-1241] | 0.1 to 1 | 0.05 to 0.5 | 0.1 to 0.5 | 
CC(=O)N1c2ccc(-c3cnn(C4CC4)c3)cc2N(C(=O)Oc2ccc3nc(C)ccc3c2)C[C@@H]1C [Example I-513] | 0.1 to 1 | 0.05 to 0.5 | < 0.1 | 
CC(C)OC(=O)N1C[C@H](C)N(C(=O)C2CC2)c2ccc(-c3cnn(CCn4ccnc4)c3)cc21 [Example I-612] | 0.1 to 1 | 0.05 to 0.5 | > 0.5 | 
CC(=O)N1c2ccc(-c3ccc(N4CCOCC4)cc3)cc2N(C(=O)C2CC2)C[C@@H]1C [Example I-1058] | 1 to 10 | 0.05 to 0.5 | 0.1 to 0.5 | 
COc1ccc(OC(=O)N2C[C@H](C)N(C(C)=O)c3ccc(-c4cnn(C5CC5)c4)cc32)cn1 [Example I-1199] | 0.1 to 1 | 0.05 to 0.5 | 0.1 to 0.5 | 

SMILES | IC50 (BRD4 BD1) [µM] | IC50 (BRD4 BD2) [µM] | IC50 (MV4-11 cells; MV4-11, 72 h) [µM] | IC50 (MV4-11 cells) [µM]
CC(=O)N1c2ccc(-c3ccc(C(=O)N4CCOCC4)cc3)cc2N(C(=O)c2ccco2)C[C@@H]1C [Example I-283] | 1 to 10 | < 0.05 | 0.1 to 0.5 | 
CCOC(=O)N1C[C@H](C)N(C(C)=O)c2ccc(-c3cnn(C4CC4)c3)cc21 [Example I-21, (S)-ethyl 4-acetyl-7-(1-cyclopropyl-1H-pyrazol-4-yl)-3-methyl-3,4-dihydroquinoxaline-1(2H)-carboxylate] | 0.1 to 1 | 0.05 to 0.5 | 0.1 to 0.5 | 
CC(=O)N1c2ccc(-c3cnn(C4CC4)c3)cc2N(C(=O)Oc2ccc(F)c(C)c2)C[C@@H]1C [Example I-266] | 0.1 to 1 | < 0.05 | 0.1 to 0.5 | 
CC(=O)N1c2ccc(-c3cnn(Cc4cccnc4)c3)cc2N(C(=O)OC(C)C)C[C@@H]1C [Example I-119, (S)-isopropyl 4-acetyl-3-methyl-7-(1-(pyridin-3-ylmethyl)-1H-pyrazol-4-yl)-3,4-dihydroquinoxaline-1(2H)-carboxylate] | 0.1 to 1 | < 0.05 | 0.1 to 0.5 | 
CCOC(=O)N1C[C@H](C)N(C(C)=O)c2ccc(-c3ccc(N4CCOCC4)cc3)cc21 [Example I-1060] | 1 to 10 | 0.05 to 0.5 | > 0.5 | 
CC(=O)N1c2ccc(-c3ccc(S(=O)(=O)CCO)cc3)cc2N(C(=O)C2CC2)C[C@@H]1C [Example I-449] | 0.1 to 1 | 0.05 to 0.5 | > 0.5 | 
CC(=O)N1c2cc(C#N)c(-c3ccc(S(C)(=O)=O)cc3)cc2N(C(=O)OC(C)C)C[C@@H]1C [Example I-219, Isopropyl (S)-4-acetyl-6-cyano-3-methyl-7-(4-(methylsulfonyl)phenyl)-3,4-dihydroquinoxaline-1(2H)-carboxylate] | 1 to 10 | > 0.5 | > 0.5 | 
CC(=O)N1c2ccc(-c3cnn(CC(=O)N4CCCCC4)c3)cc2N(C(=O)OC(C)C)C[C@@H]1C [Example I-599] | 0.1 to 1 | < 0.05 | 0.1 to 0.5 | 
CC(C)OC(=O)N1C[C@H](C)N(C(=O)C2CC2)c2ccc(-c3ccc(N4CCCS4(=O)=O)cc3)cc21 [Example I-470] | 0.1 to 1 | > 0.5 | > 0.5 | 
CC(=O)N1c2ccc(-c3cnn(CCO)c3)cc2N(C(=O)OCCC(F)(F)F)C[C@@H]1C [Example I-81, (S)-3,3,3-trifluoropropyl 4-acetyl-7-(1-(2-hydroxyethyl)-1H-pyrazol-4-yl)-3-methyl-3,4-dihydroquinoxaline-1(2H)-carboxylate] | 1 to 10 | > 0.5 | 0.1 to 0.5 | 
CC(=O)N1c2ccc(-c3c[nH]nc3C)cc2N(C(=O)OC(C)C)CC1C (stereo not drawn) [Example I-337] | 0.1 to 1 | > 0.5 | > 0.5 | 
COC(=O)N1c2ccc(-c3cnn(C4CCNCC4)c3)cc2N(C(=O)OC(C)C)C[C@@H]1C [Example I-355] | 0.1 to 1 | 0.05 to 0.5 | 0.1 to 0.5 | 
CC(=O)N1c2ccc(-c3cnn(CCO)c3)cc2N(C(=O)OC(C)C)C[C@@H]1C [Example I-12, (S)-isopropyl 4-acetyl-7-(1-(2-hydroxyethyl)-1H-pyrazol-4-yl)-3-methyl-3,4-dihydroquinoxaline-1(2H)-carboxylate] | < 0.1 | < 0.05 | 0.1 to 0.5 | 
C[C@H]1CN(C(=O)C2CC2)c2cc(-c3ccc(C(=O)N4CCNCC4)cc3)ccc2N1C(=O)C1CC1 [Example I-438] | 0.1 to 1 | 0.05 to 0.5 | 0.1 to 0.5 | 
CC(=O)N1c2ccc(-c3ccc(N4CCCC4=O)cc3)cc2N(C(=O)OC2CCCCC2)C[C@@H]1C [Example I-1267] | 0.1 to 1 | 0.05 to 0.5 | 0.1 to 0.5 | 
CC(=O)N1c2ccc(-c3cnn(C4CCOCC4)c3)cc2N(C(=O)OC2CCC(F)(F)CC2)C[C@@H]1C [Example I-2, (S)-4,4-difluorocyclohexyl 4-acetyl-3-methyl-7-(1-(tetrahydro-2H-pyran-4-yl)-1H-pyrazol-4-yl)-3,4-dihydroquinoxaline-1(2H)-carboxylate] | 0.1 to 1 | 0.05 to 0.5 | 0.1 to 0.5 | 
CC(=O)N1c2ccc(-c3cccc(S(=O)(=O)N(C)C)c3)cc2N(C(=O)c2ccco2)C[C@@H]1C [Example I-845] | 0.1 to 1 | 0.05 to 0.5 | 0.1 to 0.5 | 
CC(=O)N1c2ccc(-c3cnn(Cc4cc(C)on4)c3)cc2N(C(=O)C2CC2)C[C@@H]1C [Example I-669] | 0.1 to 1 | 0.05 to 0.5 | > 0.5 | 
CC(=O)N1c2ccc(-c3ccc(S(=O)(=O)NCCO)cc3)cc2N(C(=O)OC(C)C)C[C@@H]1C [Example I-1038] | 0.1 to 1 | 0.05 to 0.5 | 0.1 to 0.5 | 
CC(=O)N1c2ccc(-c3ccc(NS(C)(=O)=O)cc3)cc2N(C(=O)C2CC2)C[C@@H]1C [Example I-349] | 0.1 to 1 | 0.05 to 0.5 | 0.1 to 0.5 | 
CC(=O)N1c2ccc(-c3ccc4c(c3)CCCN4S(C)(=O)=O)cc2N(C(=O)C2CC2)C[C@@H]1C [Example I-1157] | 0.1 to 1 | < 0.05 | 0.1 to 0.5 | 
